The results in this text go back to a melting point compilation (Tetko et al.; mined from patent text by program, amines drawn as free bases though some values may be those of a salt).

Each structure is given as a SMILES string.

For `O=C(O)CCC1CCCC2CC(=O)NC12` (stereo not drawn), the melting point is 180 to 181 °C.

`CCCCC(OC)c1nc2c(N)nc3ccccc3c2n1CC(C)C` (stereo not drawn) displayed a melting point of 125 to 128 °C.

`COc1ccc(-c2cncc(OC3SCC(O)C(O)C3O)c2)c(Cl)c1` (stereo not drawn) came in with a melting point of 218 °C.

Regarding `O=C(C=Cc1ccc(C(=O)O)cn1)NCCCCN1CCN(C(c2ccccc2)c2ccccc2)CC1`, the melting point lay within 214 to 216 °C.

The molecule `CCC(O)(c1ccc(O)cc1O)c1ccccc1C(F)(F)F` (stereo not drawn) yielded a melting point of 143 to 144 °C.

The molecule `CC(=O)c1ccc(-n2c(CCl)nc3ccccc3c2=O)cc1` had a melting point of 180 to 181 °C.

The molecule `Cc1c(CC2CCc3c(c4ccccc4n3C)C2=O)ncn1S(=O)(=O)N(C)C` (stereo not drawn) showed a melting point of 122 to 124 °C.

On to `COc1ccc(C2=NN(c3ccccc3)C(c3ccc(NC(=S)Nc4ccccc4)cc3)C2)cc1` (stereo not drawn), for which the melting point lay in the range of 153 to 156 °C.

Molecule `Cc1cccc(Nc2cc(Nc3ccc(OCCO)cc3)ncn2)c1` had a melting point of 196 to 199 °C.

Consider `O=CC=C(c1cccc([N+](=O)[O-])c1)c1cccc([N+](=O)[O-])c1`, for which the melting point fell in the range of 131 to 136 °C.

`COc1cc(C)c(C(O)c2c(C(F)(F)F)cnc(Cl)c2Cl)c(OC)c1OC` (stereo not drawn) showed a melting point of 95 to 98 °C.

For the molecule `On1c(-c2ccncc2)nc2ccc(Cn3ccnc3)cc21`, the melting point was found to be 198 °C.

`CCCc1cn(C)c2c(=O)[nH]c(-c3cc(S(=O)(=O)N4CCN(CCCOC(C)=O)CC4)ccc3OCC)nc12`: the melting point was in the range of 157 to 158 °C.

`CS(=O)(=O)Nc1ccc(NCC2CCNCC2)c(C(=O)Nc2ccc(Cl)cn2)c1` registered a melting point of 223 to 226 °C.

Molecule `CCCCc1cn2ccccc2c1S(=O)(=O)c1ccc(OS(=O)(=O)c2ccc(C)cc2)cc1` registered a melting point of 145 °C.

On to `Cc1nn(CC(F)F)c(-c2ccc(F)cc2)c1-c1ccc2c(c1)NC(=O)CO2`, for which the melting point is 168 °C.

With `CN(C)c1cc(N2C(=O)C3=C(CCCC3)C2=O)ccc1Cl`, the melting point lay in the range of 124 to 127 °C.

The molecule `COc1ccc(C2=NNS(=O)(=O)Cc3cc4nsnc4cc32)cc1OC` registered a melting point of 228 to 230 °C.

As for `CON1CCC2(CC1)OC(=O)C(c1cc(C)ccc1C)=C2O`, the melting point was 205 to 208 °C.

As to `Clc1ccc2nc(N3CCN(c4ncccc4Cl)CC3)[nH]c2c1`, the melting point was in the range of 214 to 215 °C.

In turn, `COc1ccccc1NC(=O)Nc1nc(Nc2ccccc2-c2ccccc2)nc(N(CCC(=O)O)Cc2ccc(F)cc2)n1` came in with a melting point of 108 °C.

Regarding `CC(CCC(=O)O)CC(C)CC(C)C(=O)C=C(O)C(C)CC(C)CC=CC(C)C(O)C(C)C(O)CC1CCC(C)(C2CCC(C)(C(C)O)O2)O1` (stereo not drawn), the melting point is 203 °C.

Regarding `CCCCCCCCCCOc1ccccc1-c1nc(N)c(N=O)c(=O)[nH]1`, the melting point lay in the range of 144 to 146 °C.

With `CN(C)C(=O)n1nc2cc(Cl)ccc2c1N`, the melting point was in the range of 178 to 180 °C.

As for `CCOC(=O)c1ncc2[nH]c3ccc(C(=S)N4CCCCC4)cc3c2c1C`, the melting point lay in the range of 225 to 230 °C.

`CC(=O)Oc1cc2c(c(OC(C)=O)c1)C1CCC3(C)C(O)CCC3C1CC2` (stereo not drawn): the melting point lay within 210 to 211 °C.

With `COC(=O)/C=C/c1ccc(CC(C)NCC(O)c2cccc(Br)c2)cc1` (stereo not drawn), the melting point is 105 to 111 °C.

`Cc1noc(NS(=O)(=O)c2ccccc2-c2ccc(C(F)(F)F)cc2)c1C`: the melting point was in the range of 57 to 62 °C.

Molecule `O=C1c2ccccc2C(=S)N1C1CCC(=S)NC1=S` (stereo not drawn) showed a melting point of 244 °C.

`CCCO[C@@H](C)C(=O)Oc1ccc(-c2ccc(C(=O)O)cc2)cc1` displayed a melting point of 155 °C.

On to `N#Cc1c(N2CCN(C(=O)c3cccs3)CC2)c2sccc2n(Cc2cccc(F)c2)c1=O`, for which the melting point worked out at 271 °C.

`c1cc(N2CCCC2)ncc1C12CCN(CC1)C2` returned a melting point of 119 to 121 °C.

In turn, `COc1ccc(C(=O)Oc2ccc(COc3ccc4c(c3)CCC(CN(C)C)C4)cc2)cc1` (stereo not drawn) registered a melting point of 119 to 121 °C.

`NC1=CC(=O)CC(c2ccccc2)C1` (stereo not drawn): the melting point was 190 to 191 °C.

Molecule `O=C(Nc1ccccc1)N1CCC(C(Nc2ccc(F)cc2)c2ccc(F)cc2)CC1` (stereo not drawn) displayed a melting point of 96 to 101 °C.

`O=C1NCc2c(Oc3ccccc3)cccc2N1c1ccccc1` displayed a melting point of 225 to 227 °C.

`CC(Cc1cc([N+](=O)[O-])cc2ccoc12)NC(=O)OC(C)(C)C` (stereo not drawn) had a melting point of 131 to 132 °C.

The molecule `NNc1ncccc1-c1ccccn1` returned a melting point of 64 to 65 °C.

In turn, `CCOC(=O)c1c[nH]c(=O)c2cc(Cl)ccc12` yielded a melting point of 243 °C.

Regarding `COc1ccc2c(c1)C(=O)N(c1ccc3c(c1)n(C)c(=O)n3C)C2`, the melting point fell in the range of 268 to 270 °C.

`O=C(OC1COC(n2cc(CCN3C(=O)c4ccccc4C3=O)c(=O)[nH]c2=O)C(OC(=O)c2ccccc2)C1OC(=O)c1ccccc1)c1ccccc1` (stereo not drawn) gave a melting point of 124 °C.

`CC(C)c1nc(CN(C)C(=O)NC(C(=O)NC(Cc2ccccc2)CC(O)C(Cc2ccccc2)NC(=O)OCc2cncs2)C(C)C)cs1` (stereo not drawn) had a melting point of 122 to 123 °C.

`CC(C)(C)OCCCC1c2ccccc2COc2cccc(O)c21` (stereo not drawn): the melting point was 113 to 115 °C.

`O=C1c2ccccc2C(=O)c2c1oc1c2ccc2ccc(O)cc21`: the melting point worked out at 332 °C.

For `CC(C)n1nnc2c(NCc3ccccc3O)nc(N[C@H]3CC[C@H](N)CC3)nc21`, the melting point lay within 120 to 123 °C.

In the case of `Fc1cc(Cl)ccc1-n1nc2c(c1Cl)CSCC2`, the melting point is 97 to 99 °C.

Regarding `CCCC(=O)c1ccc2[nH]cc3c2c1CC(N(CCC)CCC)C3` (stereo not drawn), the melting point was in the range of 151 to 153 °C.

As for `N#CCCNc1ccc(CCCN2CCN(c3ccccc3)CC2)cc1`, the melting point is 141 to 143 °C.

For the molecule `COCCN1CCN(c2ccc(C(=O)NC3(C(=O)NCC#N)CCCCC3)cc2)CC1`, the melting point lay within 166 to 168 °C.

Molecule `O=C(NC[C@@H](O)C(=O)O)OCC1c2ccccc2-c2ccccc21` yielded a melting point of 165 to 166 °C.

`Cc1cnc(C)c(N(CCN(C)C)C(=O)N(C)C)n1`: the melting point was in the range of 96 to 98 °C.

Molecule `O=C1CCC(Br)C(=O)N1` (stereo not drawn) registered a melting point of 76 to 83 °C.

On to `COC(=O)c1ccc(S(=O)(=O)C[N+](=O)[O-])cc1`, for which the melting point lay in the range of 106 to 108 °C.

As for `N#CSCC(Br)=C(Br)CBr`, the melting point was 89 to 91 °C.

`Cc1ccc2nc(C)c(CCN3CCN(c4cccc(Cl)c4)CC3)c(=O)n2c1` came in with a melting point of 127 to 128 °C.

As to `CNC(=O)C(Sc1nc2cc(Cl)ccc2s1)c1ccccc1` (stereo not drawn), the melting point is 170 to 171 °C.

In turn, `CNC(=O)N(Cc1ccc(C)c(C)c1)NC(=O)OC(C)(C)C` had a melting point of 99.7 to 105 °C.

In turn, `CSC1=Nc2ccccc2N2CCN(c3ccccc3)CCN12` showed a melting point of 125 to 127 °C.

As to `O=c1oc2c(c(O)c1C(c1ccccc1)C1CC1)CCCCC2CC1CCCOC1` (stereo not drawn), the melting point is 82 to 90 °C.

`CCC1=Nc2ccc(S(C)(=O)=O)cc2C(=O)C1` yielded a melting point of 283 °C.

The molecule `CC(C)C(=O)NS(=O)(=O)c1cccc(N)c1` yielded a melting point of 110 to 112 °C.

The molecule `CC(C)(C)c1ccnc(C(=O)c2[nH]c3cc(Cl)ccc3c2CC(=O)O)c1` showed a melting point of 203 to 205 °C.

As for `COc1ccccc1Sc1ccccc1C(=O)O`, the melting point was 198 to 200 °C.

`Cc1ccc(N2C(=O)NC(=O)C23CCN(Cc2ccccc2)CC3)cc1` gave a melting point of 291 to 293 °C.

Molecule `O=C(OCOC(=O)c1ccccc1)Oc1ccc([N+](=O)[O-])cc1` yielded a melting point of 69 to 71 °C.

Regarding `C=C(Cl)CC1(C)Cc2cc(O)c(Cl)c(Cl)c2C1=O` (stereo not drawn), the melting point stood at 183 °C.

Turning to `CCOC(=O)C=C1CSC2=C1SCC=NC2`, the melting point was in the range of 86 to 87 °C.

The molecule `C(C#Cc1cccc2ccccc12)#Cc1cccc2ccccc12` came in with a melting point of 176 to 177 °C.

`COc1ccc(Cn2nnnc2C(=O)Nc2cc(C(F)(F)F)cc(NC(=O)c3nnnn3Cc3ccc(OC)cc3)c2Cl)cc1` gave a melting point of 185 to 186 °C.

Molecule `CCCCc1nc2c(c(C)c(C)n3nnnc23)n1CC(C)(C)NC(=O)OC(C)(C)C` came in with a melting point of 179 to 181 °C.

As to `CCc1nn(C(C)CCCc2ccccc2)c2nc(Cc3ccc(-c4cccc(N)c4)cc3)[nH]c(=O)c12` (stereo not drawn), the melting point turned out to be 108 °C.

`N#Cc1ccc(OCc2ccccc2)cc1O` registered a melting point of 130 °C.

The molecule `O=C(CNc1c(C(=O)O)[nH]c2cc(F)ccc12)c1ccccc1` came in with a melting point of 142 to 143 °C.

Molecule `O=C(C=C1C(=O)N(c2ccccc2)C(=O)N1c1ccccc1)Nc1ccccc1` yielded a melting point of 214 °C.

With `CC(C)(C)Sc1c(CC(C)(C)C(=O)O)n(Cc2ccc(Cl)cc2)c2ccc(OCc3cc4ccccc4cn3)cc12`, the melting point turned out to be 228 °C.

Turning to `Cc1nnc2n1-c1ccc(I)cc1C(c1ccccc1F)=NC2C` (stereo not drawn), the melting point is 142 to 145 °C.

Take `CCOC(=O)c1cc2c(OCc3ccccc3)ccc3c(CC)c(-c4ccc(OCc5ccccc5)cc4)c1n23`: the melting point is 114 to 116 °C.

With `CCOC(=O)C=Cc1ccc2cc(C=CC(=O)OCC)ccc2c1`, the melting point was in the range of 150 to 151 °C.

Turning to `Cc1ccccc1OCC(O)CN` (stereo not drawn), the melting point amounted to 64 °C.

Take `Cc1c(OCc2ccc(F)cc2F)cc(C)n(C2CCCCC2)c1=O`: the melting point was in the range of 118 to 120 °C.

Turning to `CN1CCN(C2=Nc3cc(C(F)(F)F)ccc3N3CCc4cccc2c43)CC1`, the melting point was 177 to 180 °C.

`COc1ccc(C(=O)NCCn2c(C)ccc2C)cc1OC` displayed a melting point of 82 to 84 °C.

`CCOC(=O)C(C#N)c1cn(C(=O)OCC)c2ccc(OC)cc12` (stereo not drawn) had a melting point of 81 to 83 °C.

Consider `CC(C)(C1OCCO1)C(O)(COc1cccc2ccccc12)Cn1ccnc1` (stereo not drawn), for which the melting point turned out to be 126 °C.

`C#CCOc1ccc2c(c1)c(-c1ccc(C(C)C)cc1)nc(=O)n2Cc1cccnc1O` returned a melting point of 121 to 123 °C.

`O=c1oc(-c2ccccc2)cc(O)c1SCCc1ccccc1` gave a melting point of 121 to 124 °C.

For `COc1ccc2cc(-c3cnccn3)ccc2n1`, the melting point is 130 to 132 °C.

Consider `CN(C(=O)CN1C(=O)C2(COc3cc4c(cc32)CCO4)c2ccccc21)c1ccccc1` (stereo not drawn), for which the melting point is 234 to 238 °C.
